Laboratory results as given in PubChem BioAssay (NCI).
Values joined by “and” are separate entries in the source; they are usually repeats but may differ in a detail not shown here. Identical values can stand only once.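 Tested at 5 concentrations; 48 h exposure; 96-well plates; endpoints linearly interpolated, else capped at highest concentration. GI50 marks 50% less growth. The concentration for full growth arrest is given as TGI.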

What was measured:
Assay in all cases: NCI tumour cell line growth inhibition, 48 h
[1] = system: SK-MEL-2 melanoma
[2] = system: SK-MEL-28 melanoma
[3] = system: TK-10 renal
[4] = system: NCI-H226 lung
[5] = system: OVCAR-4 ovarian
[6] = system: PC-3 prostate
[7] = system: HOP-92 NSCLC
[8] = system: HT29 colon
[9] = system: MDA-N
[10] = system: LOX IMVI melanoma
[11] = system: CCRF-CEM leukemia
[12] = system: HL-60(TB) leukemia
[13] = system: SW-620 colon
[14] = system: COLO 205 colon
[15] = system: NCI-H23 lung
[16] = system: DLD-1 colon
[17] = system: K-562 leukemia
[18] = system: NCI/ADR-RES ovarian
[19] = system: RPMI-8226 leukemia
[20] = system: MDA-MB-231 breast
[21] = system: DMS 114 small cell lung
[22] = system: SF-539 CNS
[23] = system: OVCAR-8 ovarian
[24] = system: U251 CNS
[25] = system: M19-MEL melanoma
[26] = system: DU-145 prostate
[27] = system: DMS 273 small cell lung
[28] = system: KM20L2 colon
[29] = system: KM12 colon
[30] = system: IGROV1 ovarian
[31] = system: RXF-631 renal
[32] = system: SNB-75 CNS
[33] = system: A549 NSCLC
[34] = system: SF-268 CNS
[35] = system: MDA-MB-435
[36] = system: UACC-62 melanoma
[37] = system: 786-0 renal
[38] = system: OVCAR-3 ovarian
[39] = system: HOP-62 NSCLC
[40] = system: MALME-3M melanoma
[41] = system: HOP-18 NSCLC
[42] = system: M14 melanoma
[43] = system: HCT-15 colon
[44] = system: EKVX NSCLC
[45] = system: ACHN renal
[46] = system: SNB-19 CNS
[47] = system: UO-31 renal
[48] = system: MCF7 breast
[49] = system: RXF 393 renal
[50] = system: UACC-257 melanoma
[51] = system: HS 578T breast
[52] = system: SK-OV-3 ovarian
[53] = system: HCC-2998 colon
[54] = system: SNB-78 CNS
[55] = system: NCI-H460 lung
[56] = system: LXFL 529 NSCLC
[57] = system: SF-295 CNS
[58] = system: OVCAR-5 ovarian
[59] = system: CAKI-1 renal
[60] = system: P388/ADR leukemia
[61] = system: NCI-H522 lung
[62] = system: P388 leukemia
[63] = system: SN12K1 renal
[64] = system: SK-MEL-5 melanoma
[65] = system: XF 498 CNS
[66] = system: HCT-116 colon
[67] = system: SN12C renal
[68] = system: MOLT-4 leukemia
[69] = system: A498 renal

C/C=C/C=C/c1cc2cc3c(c(O)c2c(=O)[nH]1)C1(CC3)C(O)=c2c(=O)c3c(=O)cc(OC)c(=O)c=3c(=O)c2=C1O (configuration not stated)
GI50 [1]: 0.249 µM and 0.885 µM | TGI [1]: 14.2 µM and 4.86 µM | TGI [2]: 4.93 µM and 20.1 µM | TGI [3]: 4.13 µM and 16.4 µM | GI50 [4]: 0.23 µM and 0.895 µM | TGI [4]: 3.71 µM and 8.42 µM | GI50 [5]: 0.311 µM and 1.08 µM | TGI [5]: 11.3 µM and 8.37 µM | TGI [6]: 0.654 µM | GI50 [7]: 0.415 µM | TGI [7]: 2.28 µM | TGI [8]: 1.37 µM and 13.5 µM | TGI [9]: 11.9 µM | GI50 [10]: 1.27 µM | TGI [10]: 9.5 µM | TGI [11]: 1.13 µM and 11.2 µM | GI50 [12]: 0.669 µM | TGI [12]: 3.95 µM | TGI [13]: 1.47 µM and 13 µM | TGI [14]: 1.23 µM and 6.92 µM | TGI [15]: 10.1 µM and 8.27 µM | TGI [16]: 17.9 µM | TGI [17]: > 38.4 µM | TGI [18]: 37.9 µM | TGI [19]: 0.678 µM and 2.2 µM | TGI [20]: 4.15 µM | TGI [21]: 4.83 µM | GI50 [22]: 0.363 µM and 2.33 µM | TGI [22]: 2.48 µM and 10.6 µM | GI50 [23]: 0.145 µM and 0.902 µM | TGI [23]: 5.15 µM and 15.5 µM | TGI [24]: 0.851 µM and 5.59 µM | TGI [25]: 13 µM | TGI [26]: 15.8 µM | TGI [27]: 7.82 µM | TGI [28]: 10.9 µM | TGI [29]: 16.5 µM | TGI [30]: 10.6 µM and 15.3 µM | TGI [31]: > 100 µM | GI50 [32]: 0.0567 µM and 0.545 µM | TGI [32]: 0.511 µM and 1.72 µM | GI50 [33]: 0.183 µM and 1.4 µM | TGI [33]: 4.69 µM and 13.6 µM | TGI [34]: 17.6 µM and 40.3 µM | TGI [35]: 10.8 µM | TGI [36]: 4.34 µM and 14.7 µM | GI50 [37]: 0.41 µM and 1.91 µM | TGI [37]: 4.37 µM and 8.39 µM | GI50 [38]: 0.2 µM and 1.7 µM | TGI [38]: 1.37 µM and 8.57 µM | GI50 [39]: 0.327 µM and 1.15 µM | TGI [39]: 4.49 µM and 8.28 µM | TGI [40]: 2.19 µM and 12.9 µM | TGI [41]: 7.47 µM | GI50 [42]: 0.315 µM and 0.977 µM | TGI [42]: 3.24 µM and 9.06 µM | TGI [43]: 3.68 µM and 15.1 µM | GI50 [44]: 0.188 µM and 1.12 µM | TGI [44]: 3 µM and 12.2 µM | TGI [45]: 1.7 µM and 16.5 µM | TGI [46]: 14.5 µM and 13.9 µM | GI50 [47]: 0.17 µM and 1.37 µM | TGI [47]: 16.3 µM and 9.83 µM | TGI [48]: 0.215 µM | GI50 [49]: 0.622 µM and 3.36 µM | TGI [49]: 3.13 µM and 10.4 µM | TGI [50]: 1.87 µM and 6.45 µM | TGI [51]: 26.7 µM | TGI [52]: 16 µM and 8.75 µM | TGI [53]: 1.33 µM and 11.3 µM | TGI [54]: > 56.7 µM | GI50 [55]: 0.192 µM and 0.985 µM | TGI [55]: 15.6 µM and 12 µM | TGI [56]: 4.56 µM | TGI [57]: 2.91 µM and 8.02 µM

Brc1ccc2[nH]c3c(C4=NCCC4)nccc3c2c1
TGI [1]: > 53.3 µM | TGI [2]: > 100 µM | TGI [58]: > 29.7 µM | TGI [4]: 26.4 µM | TGI [5]: > 87.7 µM | TGI [7]: > 74.2 µM | TGI [8]: > 38.7 µM | TGI [10]: > 46.6 µM | TGI [11]: > 30.1 µM | TGI [59]: > 53.1 µM | TGI [12]: 18.6 µM | TGI [13]: > 86.6 µM | TGI [14]: > 59.6 µM | TGI [60]: > 23.8 µM | TGI [15]: > 79.7 µM | TGI [16]: > 43.4 µM | TGI [61]: > 100 µM | TGI [17]: > 41.9 µM | TGI [62]: > 21.7 µM | TGI [18]: > 100 µM | TGI [19]: > 36 µM | TGI [63]: > 25.7 µM | TGI [21]: > 57.8 µM | TGI [22]: > 25.4 µM | TGI [23]: > 100 µM | TGI [64]: > 34.2 µM | TGI [65]: > 72.2 µM | TGI [66]: > 23.2 µM | TGI [67]: > 91.6 µM | TGI [24]: > 38.8 µM | TGI [25]: 84.4 µM | TGI [27]: > 76 µM | TGI [28]: 23.3 µM | TGI [29]: > 100 µM | TGI [30]: > 78.7 µM | TGI [32]: > 82 µM | TGI [33]: > 100 µM | TGI [34]: > 70.4 µM | TGI [36]: 30.5 µM | TGI [38]: > 100 µM | TGI [39]: > 42.2 µM | TGI [40]: 16.1 µM | TGI [41]: > 85.8 µM | TGI [68]: > 30.4 µM | TGI [43]: > 69.2 µM | TGI [44]: 57.3 µM | TGI [46]: > 100 µM | TGI [69]: > 49.2 µM | TGI [47]: 37 µM | TGI [48]: > 47.6 µM | TGI [49]: 71.2 µM | TGI [50]: > 49.7 µM | TGI [52]: > 100 µM | TGI [53]: 39.1 µM | TGI [54]: > 100 µM | TGI [55]: > 32.8 µM | TGI [57]: > 36.7 µM
